The text below walks through data of PubChem BioAssay AID298 (DTP/NCI, 2004).

Each structure is given as a SMILES string. “And” between values parts separate entries of the source, which are not always exact repeats. Identical values can stand only once. Results filed as inconclusive are left out.

The assay concerns MX-1 breast xenograft, intrarenal, nude mice, tumor weight. Kind of assay: NCI In Vivo Anticancer Drug Screen. Data for tumor model Human Mammary Carcinoma MX-1 Xenograft (intrarenal inoculation) in NU/NU BALB/C (nude) mice. Conditions: endpoint: mean tumor weight change, higher = larger tumour. In short, it runs like this: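 Mice w/ transplanted tumors, drug vs vehicle; endpoint survival or tumor size; value = T/C.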
(In general: Xenograft models place foreign cells or tissue in a host animal.)

[1] abbreviates: dose: 150.0 mg/kg/injection, schedule: Q04DX003 (ip), vehicle: Klucel (hydroxypropylcellulose) (HPC).
Where [2] appears, read: dose: 150.0 mg/kg/injection, schedule: Q04DX003 (ip), vehicle: saline with Tween-80.
[3] abbreviates: dose: 300.0 mg/kg/injection, schedule: Q04DX003 (sc), vehicle: Klucel (hydroxypropylcellulose) (HPC).
The mark [4] stands for this setting: dose: 600.0 mg/kg/injection, schedule: Q04DX003 (sc), vehicle: Klucel (hydroxypropylcellulose) (HPC).
Setting [5] is: dose: 1200.0 mg/kg/injection, schedule: Q04DX003 (sc), vehicle: Klucel (hydroxypropylcellulose) (HPC).
The mark [6] stands for this setting: dose: 100.0 mg/kg/injection, schedule: Q01DX010 (sc), vehicle: saline with Tween-80.
Where [7] appears, read: dose: 150.0 mg/kg/injection, schedule: Q04DX003 (sc), vehicle: Klucel (hydroxypropylcellulose) (HPC).
Setting [8] is: dose: 200.0 mg/kg/injection, schedule: Q04DX003 (ip), vehicle: saline with Tween-80.

With `CCOC(=O)/C=C/C(=O)N1CCN(C(=O)/C=C/C(=O)OCC)C(C)C1` (stereo unspecified), the T/C is, setting by setting: under setting [1], 103 % of control; (dose: 300.0 mg/kg/injection, schedule: Q04DX003 (ip), vehicle: Klucel (hydroxypropylcellulose) (HPC)) 83 % of control; (dose: 600.0 mg/kg/injection, schedule: Q04DX003 (ip), vehicle: Klucel (hydroxypropylcellulose) (HPC)) 77 % of control.
`COc1cc2c[n+](C)c3c(c2cc1OC)Cc1cc2c(cc1-3)OCO2`: the T/C is, setting by setting: (dose: 75.0 mg/kg/injection, schedule: Q04DX003 (ip), vehicle: saline with Tween-80) 102 % of control; under setting [2], 35 % of control.
Take `COC(=O)Nc1cn2cc(C(=O)c3cccs3)ccc2n1`: the T/C runs as follows: under setting [3], 70 % of control; under setting [4], 74 % of control; under setting [5], 102 % of control; (dose: 2400.0 mg/kg/injection, schedule: Q04DX003 (sc), vehicle: Klucel (hydroxypropylcellulose) (HPC)) 96 % of control.
With `COc1cc2c(c3c1c(=O)c1ccccc1n3C)C=CC(C)(C)O2`, the T/C (dose: 37.5 mg/kg/injection, schedule: Q04DX003 (ip), vehicle: Klucel (hydroxypropylcellulose) (HPC)) was 54 % of control; the T/C (dose: 75.0 mg/kg/injection, schedule: Q04DX003 (ip), vehicle: Klucel (hydroxypropylcellulose) (HPC)) was 40 % of control; the T/C under setting [1] is 21 % of control.
Turning to `Nc1ncnc2c1ncn2C1OC(CO)C(O)C1O` (stereo unspecified), under “dose: 150.0 mg/kg/injection, schedule: Q04DX003 (sc), vehicle: saline”, the T/C is 3 % of control and 23 % of control.
For `ClCC[N+]12CC[N+](CCCl)(CC1)C2`, the T/C was 34 % of control (dose: 75.0 mg/kg/injection, schedule: Q04DX003 (sc), vehicle: water); 23 % of control and 27 % of control under setting [6]; 18 % of control (dose: 150.0 mg/kg/injection, schedule: Q04DX003 (sc), vehicle: water); 16 % of control and 19 % of control (dose: 200.0 mg/kg/injection, schedule: Q01DX010 (sc), vehicle: saline with Tween-80); 3 % of control (dose: 300.0 mg/kg/injection, schedule: Q04DX003 (sc), vehicle: water).
For `C=C(C)C(=O)O[C@H]1CC2=C[C@@H](C[C@@]3(C)O[C@@H]3[C@H]3OC(=O)C(=C)[C@@H]31)OC2=O`, the T/C by setting is: (dose: 37.5 mg/kg/injection, schedule: Q04DX003 (sc), vehicle: Klucel (hydroxypropylcellulose) (HPC)) 96 % of control; (dose: 75.0 mg/kg/injection, schedule: Q04DX003 (sc), vehicle: Klucel (hydroxypropylcellulose) (HPC)) 78 % of control; under setting [7], 104 % of control; under setting [3], 72 % of control.
Take `COc1ccc(S(=O)(=O)N/N=C/C(=O)O)cc1`: the T/C by setting is: (dose: 25.0 mg/kg/injection, schedule: Q01DX010 (sc), vehicle: saline with Tween-80) 79 % of control; (dose: 50.0 mg/kg/injection, schedule: Q01DX010 (sc), vehicle: saline with Tween-80) 59 % of control; under setting [6], 8 % of control.
For `Cc1nc(N)nc(N)c1N1CCN(c2ccc(C(=O)NC(C(=O)O)C(=O)O)cc2)CC1`, the T/C (dose: 7.5 mg/kg/injection, schedule: Q04DX003 (ip), vehicle: Klucel + Tween-80) is 63 % of control; the T/C (dose: 15.0 mg/kg/injection, schedule: Q04DX003 (ip), vehicle: Klucel + Tween-80) was 76 % of control; the T/C (dose: 30.0 mg/kg/injection, schedule: Q04DX003 (ip), vehicle: Klucel + Tween-80) is 76 % of control; the T/C (dose: 60.0 mg/kg/injection, schedule: Q04DX003 (ip), vehicle: Klucel + Tween-80) was 82 % of control.
Take `CC1=C(/C=C/C(C)=C/C=C/C(C)=C/C(=O)Nc2ccc(O)cc2)C(C)(C)CCC1`: the T/C was 67 % of control (dose: 100.0 mg/kg/injection, schedule: Q04DX003 (ip), vehicle: saline with Tween-80); 81 % of control under setting [8]; 58 % of control (dose: 400.0 mg/kg/injection, schedule: Q04DX003 (ip), vehicle: saline with Tween-80); 69 % of control (dose: 800.0 mg/kg/injection, schedule: Q04DX003 (ip), vehicle: saline with Tween-80).
For `C[n+]1c(/C=N/NC(N)=S)ccc2ccccc21`, the T/C (dose: 300.0 mg/kg/injection, schedule: Q04DX003 (sc), vehicle: saline with Tween-80) is 78 % of control.
In the case of `NC(=O)CCC(N)C(=O)O` (stereo unspecified), the T/C is, setting by setting: (dose: 150.0 mg/kg/injection, schedule: Q04DX003 (ip), vehicle: suspension in saline) 91 % of control; (dose: 300.0 mg/kg/injection, schedule: Q04DX003 (ip), vehicle: suspension in saline) 102 % of control; (dose: 600.0 mg/kg/injection, schedule: Q04DX003 (ip), vehicle: suspension in saline) 76 % of control; (dose: 1200.0 mg/kg/injection, schedule: Q04DX003 (ip), vehicle: suspension in saline) 87 % of control.
Consider `O=[N+]([O-])c1nccn1CC(O)CO` (stereo unspecified), for which the T/C is 96 % of control (dose: 300.0 mg/kg/injection, schedule: Q04DX004 (sc), vehicle: saline); 91 % of control (dose: 600.0 mg/kg/injection, schedule: Q04DX004 (sc), vehicle: saline); 93 % of control (dose: 2400.0 mg/kg/injection, schedule: Q04DX004 (sc), vehicle: saline).
As for `CCCCNP1(NCCCC)=NP(NCCCC)(NCCCC)=NP(NCCCC)(NCCCC)=NP(NCCCC)(NCCCC)=N1`, the T/C is 89 % of control under setting [2] and 73 % of control (dose: 300.0 mg/kg/injection, schedule: Q04DX003 (ip), vehicle: saline with Tween-80).
For `COc1cc2c(c(OC)c1OC)-c1ccc(OC)c(=O)cc1[C@@H](NC(C)=O)CC2`, the T/C is 41 % of control and 48 % of control (dose: 0.5 mg/kg/injection, schedule: Q04DX003 (ip), vehicle: saline); 17 % of control and 20 % of control (dose: 1.0 mg/kg/injection, schedule: Q04DX003 (ip), vehicle: saline).
Regarding `Nc1nc(N)c2cc(CNc3ccc(C(=O)NC(CC(=O)O)CC(=O)O)cc3)ccc2n1`, the T/C reads like this: under setting [7], 103 % of control; under setting [3], 86 % of control; under setting [4], 91 % of control; under setting [5], 101 % of control.
Consider `COc1ccc(N=N/N=c2\sc3cc(OC)ccc3n2C)cc1`, for which the T/C is, setting by setting: (dose: 30.0 mg/kg/injection, schedule: Q04DX003 (ip), vehicle: saline with Tween-80) 68 % of control; (dose: 60.0 mg/kg/injection, schedule: Q04DX003 (ip), vehicle: saline with Tween-80) 87 % of control; (dose: 120.0 mg/kg/injection, schedule: Q04DX003 (ip), vehicle: saline with Tween-80) 65 % of control; (dose: 240.0 mg/kg/injection, schedule: Q04DX003 (ip), vehicle: saline with Tween-80) 62 % of control.
Regarding `COc1ccc2oc3c(ccc[n+]3C)c(=O)c2c1`, under setting [8], the T/C was 116 % of control.
Consider `CCCC(=O)OCc1cc(=O)n(C)c2c3c4c(cc12)c(C)cc(=O)n4CO3`, for which the T/C (dose: 50.0 mg/kg/injection, schedule: Q01DX010 (sc), vehicle: Klucel (hydroxypropylcellulose) (HPC)) is 79 % of control; the T/C (dose: 100.0 mg/kg/injection, schedule: Q01DX010 (sc), vehicle: Klucel (hydroxypropylcellulose) (HPC)) was 75 % of control; the T/C (dose: 200.0 mg/kg/injection, schedule: Q01DX010 (sc), vehicle: Klucel (hydroxypropylcellulose) (HPC)) is 64 % of control; the T/C (dose: 400.0 mg/kg/injection, schedule: Q01DX010 (sc), vehicle: Klucel (hydroxypropylcellulose) (HPC)) was 66 % of control; the T/C (dose: 800.0 mg/kg/injection, schedule: Q01DX010 (sc), vehicle: Klucel (hydroxypropylcellulose) (HPC)) was 61 % of control.
For the molecule `CCOC(=O)C(N)CSC(=O)NC` (stereo unspecified), the T/C by setting is: (dose: 112.5 mg/kg/injection, schedule: Q04DX003 (ip), vehicle: Klucel (hydroxypropylcellulose) (HPC)) 54 % of control; (dose: 125.0 mg/kg/injection, schedule: Q04DX003 (sc), vehicle: saline) 72 % of control; (dose: 225.0 mg/kg/injection, schedule: Q04DX003 (ip), vehicle: Klucel (hydroxypropylcellulose) (HPC)) 14 % of control; (dose: 225.0 mg/kg/injection, schedule: Q04DX003 (sc), vehicle: saline) 26 % of control; (dose: 450.0 mg/kg/injection, schedule: Q04DX003 (ip), vehicle: Klucel (hydroxypropylcellulose) (HPC)) 9 % of control; (dose: 450.0 mg/kg/injection, schedule: Q04DX003 (sc), vehicle: saline) 2 % of control. Besides, where the note is “dose: 900.0 mg/kg/injection, schedule: Q04DX003 (sc), vehicle: saline”, the T/C was -19 % of control.
